Measurements: patent US11505536B2, “Dihydroorotate dehydrogenase inhibitors” (Janssen Biotech, Inc., priority 2019, dated 2022)

How the values were obtained:
[1] = tested on: MOLM-13 cells (human acute myeloid leukemia cells); assay: MOLM-13 Cellular Assay; format: cell-based; conditions: Homo sapiens, MOLM-13, 72 h, 72 hours exposure, cell viability by CellTiter-Glo
In short: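 MOLM-13 AML cells, seeded at 5,000/well in RPMI 1640 with 10% FBS, were treated with compounds right after seeding for 72 h at 37 °C, 5% CO2. Viability read by CellTiter-Glo luminescence.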

human DHODH = human DHODH (Homo sapiens (Human), UniProt Q02127); assay: DHODH Enzymatic Assay; format: biochemical; conditions: purified human DHODH, DCIP absorbance, end-point mode; read-out: hDHODH IC50
In short: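 Purified human DHODH in […] HEPES pH 7.5, 150 mM NaCl, 0.5 mM EDTA, 0.1% Triton X-100; reaction started with substrate mix of 20 mM DHO, 5 mM CoQ6, 1 mM DCIP. End-point read as DCIP reduction (absorbance ~600 nm) after brequinar quench.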

Chain of human DHODH (Q02127 whole entry): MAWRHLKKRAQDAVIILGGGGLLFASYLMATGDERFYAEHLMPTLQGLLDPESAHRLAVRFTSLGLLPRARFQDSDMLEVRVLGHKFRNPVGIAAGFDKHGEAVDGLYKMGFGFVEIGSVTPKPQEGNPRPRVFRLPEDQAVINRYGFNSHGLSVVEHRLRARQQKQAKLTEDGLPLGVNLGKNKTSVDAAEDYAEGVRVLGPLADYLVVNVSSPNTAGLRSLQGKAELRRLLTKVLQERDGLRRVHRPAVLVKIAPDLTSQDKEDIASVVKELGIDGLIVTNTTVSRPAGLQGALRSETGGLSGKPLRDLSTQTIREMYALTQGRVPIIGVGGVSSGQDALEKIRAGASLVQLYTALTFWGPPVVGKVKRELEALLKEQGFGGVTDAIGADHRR

SMILES	IC50 [1] [nM]	IC50 (human DHODH) [nM]
[2H]C([2H])([2H])c1ccccc1-n1cc(C(C)C)c2cc(-n3nc(CO)n(CC)c3=O)c(F)cc2c1=O [Example 93, 6-(4-Ethyl-3-(hydroxymethyl)-5-oxo-4,5-dihydro-1H-1,2,4-triazol-1-yl)-7-fluoro-4-isopropyl-2-(2-(methyl-d3)phenyl)isoquinolin-1(2H)-one]	0.6	0.463
CCn1c(CO)nn(-c2nc3c([C@@H](C)C(F)(F)F)cn(-c4ccccc4C)c(=O)c3cc2F)c1=O [Example 38, (R)-2-(4-Ethyl-3-(hydroxymethyl)-5-oxo-4,5-dihydro-1H-1,2,4-triazol-1-yl)-3-fluoro-6-(o-tolyl)-8-(1,1,1-trifluoropropan-2-yl)-1,6-naphthyridin-5(6H)-one]	0.5	0.464
CCn1c(CO)nn(-c2cc3c(C(C)C)nn(-c4ccccc4C)c(=O)c3cc2F)c1=O [Example 53, 6-(4-Ethyl-3-(hydroxymethyl)-5-oxo-4,5-dihydro-1H-1,2,4-triazol-1-yl)-7-fluoro-4-isopropyl-2-(o-tolyl)phthalazin-1(2H)-one]	0.7	0.778
CCn1c(CO)nn(-c2cc3c(C(C)C)cn(-c4cc(C)cnc4Cl)c(=O)c3cc2F)c1=O [Example 98, 2-(2-Chloro-5-methylpyridin-3-yl)-6-(4-ethyl-3-(hydroxymethyl)-5-oxo-4,5-dihydro-1H-1,2,4-triazol-1-yl)-7-fluoro-4-isopropylisoquinolin-1(2H)-one]	50	6.29
CCn1c(CO)nn(-c2cc3c(C(C)C)cn(-c4cc(OC)ccc4F)c(=O)c3cc2F)c1=O [Example 63, 6-(4-Ethyl-3-(hydroxymethyl)-5-oxo-4,5-dihydro-1H-1,2,4-triazol-1-yl)-7-fluoro-2-(2-fluoro-5-methoxyphenyl)-4-isopropylisoquinolin-1(2H)-one]	2	2.76
CCn1c(CO)nn(-c2cc3c(C(C)C)cn(-c4c(C)n[nH]c4Cl)c(=O)c3cc2F)c1=O [Example 31, 2-(5-Chloro-3-methyl-1H-pyrazol-4-yl)-6-(4-ethyl-3-(hydroxymethyl)-5-oxo-4,5-dihydro-1H-1,2,4-triazol-1-yl)-7-fluoro-4-isopropylisoquinolin-1(2H)-one]	6	0.764
CCn1c(CO)nn(-c2nc3c(C(C)C)cn(-c4c(F)cccc4Cl)c(=O)c3cc2F)c1=O [Example 36, 6-(2-Chloro-6-fluorophenyl)-2-(4-ethyl-3-(hydroxymethyl)-5-oxo-4,5-dihydro-1H-1,2,4-triazol-1-yl)-3-fluoro-8-isopropyl-1,6-naphthyridin-5(6H)-one]	0.4	0.356
CCn1c(CO)nn(-c2cc3c(C(C)C)cn(-c4csnc4C)c(=O)c3cc2F)c1=O [Example 131, 6-(4-Ethyl-3-(hydroxymethyl)-5-oxo-4,5-dihydro-1H-1,2,4-triazol-1-yl)-7-fluoro-4-isopropyl-2-(3-methylisothiazol-4-yl)isoquinolin-1(2H)-one]	50	33.7
CCn1c(CO)nn(-c2cc3c(C(C)C(F)(F)F)cn(-c4ccccc4C)c(=O)c3cc2F)c1=O (racemic) [Example 88, Racemic-6-(4-Ethyl-3-(hydroxymethyl)-5-oxo-4,5-dihydro-1H-1,2,4-triazol-1-yl)-7-fluoro-2-(o-tolyl)-4-(1,1,1-trifluoropropan-2-yl)isoquinolin-1(2H)-one]	0.9	0.52
CCn1c(CO)nn(-c2cc3c(C(C)C)cn(-c4c(C)cnc(OC)c4C)c(=O)c3cc2F)c1=O [Example 78, 6-(4-Ethyl-3-(hydroxymethyl)-5-oxo-4,5-dihydro-1H-1,2,4-triazol-1-yl)-7-fluoro-4-isopropyl-2-(2-methoxy-3,5-dimethylpyridin-4-yl)isoquinolin-1(2H)-one]	20	2.34

Continued, values first:

IC50 [1] [nM]	IC50 (human DHODH) [nM]	SMILES
10	31.2	CCc1nn(-c2ccccc2C)c(=O)c2ccc(-n3nc(CO)n(CC)c3=O)cc12 [Example 21, 4-Ethyl-6-(4-ethyl-3-(hydroxymethyl)-5-oxo-4,5-dihydro-1H-1,2,4-triazol-1-yl)-2-(o-tolyl)phthalazin-1(2H)-one]
20	1.65	C=C(C)c1cn(-c2cccc(OCCO)c2Cl)c(=O)c2cc(F)c(-n3nc(CO)n(CC)c3=O)cc12 [Example 65, 2-(2-Chloro-3-(2-hydroxyethoxy)phenyl)-6-(4-ethyl-3-(hydroxymethyl)-5-oxo-4,5-dihydro-1H-1,2,4-triazol-1-yl)-7-fluoro-4-(prop-1-en-2-yl)isoquinolin-1(2H)-one]
6	5.49	C=C(C)c1cn(-c2ccccc2C#N)c(=O)c2ccc(-n3nc(CO)n(CC)c3=O)cc12 [Example 13, 2-(6-(4-Ethyl-3-(hydroxymethyl)-5-oxo-4,5-dihydro-1H-1,2,4-triazol-1-yl)-1-oxo-4-(prop-1-en-2-yl)isoquinolin-2(1H)-yl)benzonitrile]
2	1.01	C=C(C)c1cn(-c2ccccc2C)c(=O)c2cc(F)c(-n3nc(CO)n(CC)c3=O)nc12 [Example 32, 2-(4-Ethyl-3-(hydroxymethyl)-5-oxo-4,5-dihydro-1H-1,2,4-triazol-1-yl)-3-fluoro-8-(prop-1-en-2-yl)-6-(o-tolyl)-1,6-naphthyridin-5(6H)-one]
0.7	2.22	C=C(C)c1cn(-c2cc(OC)ccc2F)c(=O)c2cc(F)c(-n3nc(CO)n(CC)c3=O)cc12 [Example 44, 6-(4-Ethyl-3-(hydroxymethyl)-5-oxo-4,5-dihydro-1H-1,2,4-triazol-1-yl)-7-fluoro-2-(2-fluoro-5-methoxyphenyl)-4-(prop-1-en-2-yl)isoquinolin-1(2H)-one]
6	9.89	C=C(C)c1cn(-c2cccc(F)c2)c(=O)c2ccc(-n3nc(CO)n(CC)c3=O)cc12 [Example 1, 6-(4-Ethyl-3-(hydroxymethyl)-5-oxo-4,5-dihydro-1H-1,2,4-triazol-1-yl)-2-(3-fluorophenyl)-4-(prop-1-en-2-yl)isoquinolin-1(2H)-one]
100	344	CCn1c(CO)nn(-c2ccc3c(=O)n(-c4c(F)cccc4Cl)ccc3c2)c1=O [Example 10, 2-(2-Chloro-6-fluorophenyl)-6-(4-ethyl-3-(hydroxymethyl)-5-oxo-4,5-dihydro-1H-1,2,4-triazol-1-yl)isoquinolin-1(2H)-one]
